This note sets out measurements from patent US4436753A, “Method for therapy of ischemic disease” (Takeda Chemical Industries, Ltd., priority 1979, dated 1984).

Molecules are shown by their SMILES.

Series [1] concerns bovine heart mitochondria deactivated by treatment with acetone (succinate oxidase activity). The experiment in a line: Mitochondrial respiration activating effect (succinate oxidase oxygen consumption). Type of series: biochemical. As to conditions: 5 n mole added; 23° C.; succinate substrate; acetone-treated mitochondria. The protocol:
The effect of activating the respiration of bovine heart mitochondria deactivated by treatment with acetone was evaluated by the method of Lester and Fleischer (Biochim. Biophys. Acta, vol. 113, p. 519, 1966). The respiration activating effect was expressed in terms of oxygen consumption due to succinate oxidase activity, succinic acid being the substrate.
*The rate was measured at 23° C. using an oxygen electrode
apparatus (Gilson's model KIC). Composition of the reaction medium (2 ml)
0.2 M sucrose, 10 mM Trishydrochloric acid (pH 7.4), 20 mM KCl, 3 mM
MgCl2, 50 μM EDTA.2Na, 1.99 mg (as protein) acetonetreated
mitochondria, 50 μM potassium succinate, 0.2 mg cytochrome C, and 5
μl 1% Nikkol OP10 ® (polyoxyethylene octylphenyl ether; Produced b
Nikko Chemicals) solution of the test sample (in the case of the test
sample) or 5 μl 1% Nikkol OP10 ® (Polyoxyethylene octylphenyl
ether; Produced by Nikko Chemicals) (in the case of the control).

Series [2] has as its system Spontaneously hypertensive rats. The experiment in a line: Protecting effect against heart failure (drug-induced cardiac insufficiency), spontaneously hypertensive rats. It counts as in vivo, rat. To be noted: administration period 10 days.
For series [3], the system named is SHRSP. The experiment in a line: Cerebral apoplexy preventing effect. It counts as in vivo, rat. The protocol: The SHRSP, fed with high sodium chloride level, are liable to develop cerebral apoplexy (cerebral hemorrhage or hemorrhagic infarction) with high incidence. The compound of the invention (I, n=10) was administered in admixture with the diet to a group of 12 male SHRSP.
^1 8week-old male SHRSP
^2 14week-old male SHRSP
^3 Number of apoplectic cases/number of animals used.

Series [4] has as its system SHRSP. The experiment in a line: Cerebral ischemia-protecting effect, carotid artery ligated on both sides. It counts as in vivo, rat. The text has this: Spontaneously hypertensive rats showing a strong tendency to cerebral apoplexy (hereinafter abbreviated to SHRSP) (Okamoto et al., Circulation Res., vol. 34-35, pp. 1-143, 1974), were newly established in 1974. When the carotid artery is ligated on both sides, apoplectic symptoms such as convulsion fit, respiratory distress and coma, which lead to death (the incidence being 100%), are observed.
The time to the manifestation of the symptoms and the time to death were prolonged also by the administration of 100 mg/kg for 3 days or 35 mg/kg for 14 days.

In series [5] the test system is normal rat. The experiment in a line: Preventing effect against development of malignant hypertension (unilateral kidney excision, desoxycorticosterone acetate, 1% sodium chloride). Type of series: in vivo. To be noted: 50 mg/kg oral twice a day. The protocol: The kidney of each normal rat was unilaterally excised, and desoxycorticosterone acetate (10 mg/kg) was administered subcutaneously once a week. The rats were given a 1% aqueous sodium chloride solution as drinking water. On the day of operation and thereafter, the compound of the invention (I, n=10) was orally administered at a dose of 50 mg/kg twice a day, and the above indexes of aggravation were determined.

A short description of series [6]: 2-week oral repeated dose toxicity (Reference Example 8). To be noted: gum arabic suspension, 100 mg/kg or 500 mg/kg daily for 2 weeks. It counts as in vivo. The protocol: The compound of the present invention (I, n=10) was suspended in a gum arabic solution and oraly administered consecutively for 2 weeks at a daily dose of 100 mg/kg or 500 mg/kg, and examination of general condition, urinalysis and blood examination were carried out during the course of administration. Histopathology was done at the termination of the administration.

Series [7] concerns normal rats. The experiment in a line: Protecting effect against heart failure (Adriamycin-induced), normal rats. Type of series: in vivo, rat. To be noted: Adriamycin 1 mg/kg/day i.p., compound 10 mg/kg/day oral, 10 days. The protocol:
Adriamycin (1 mg/kg/day) was intraperitoneally administered to normal rats and, after 2 weeks, the compound of the invention (I, n=10) (10 mg/kg/day) was orally administered, and the cardiac functional state was examined electrocardiographically and biochemically. […] In addition, the tissue lactic acid level, an index of myocardinal energy state, was lowered.

In series [8] the test system is SHRSP. The experiment in a line: Antihypertensive action. As to conditions: 35 mg/kg daily oral. Type of series: in vivo, rat. From the text:
| ^1 Each group consisted of 12 animals.

Series [9] has as its system SHRSP. The experiment in a line: Improving effect on symptoms of cerebral apoplexy. It counts as in vivo, rat. As to conditions: 100 mg/kg/day oral, 21 days after first symptom. The text has this:
SHRSP's were fed under sodium chloride loading as in Example 3. Upon manifestation of the first symptom, the sodium chloride loading was discontinued and at the same time oral administration of the compound of the invention (I, n=10) was commenced. After administration for 3 weeks, the dosed group was compared with the control group in respect of the severity of the symptoms. The severity was scored (0 for no symptoms to 5 for the severest) for each individual and the results were expressed in terms of the total score for the respective group. As shown by the results set forth in Table 4, the administration of the compound of the present invention alleviated the clinical symptoms after manifestation of the apoplexy. The body weight loss after the apoplexy was also depressed.

Where [10] appears, read: Experiment 2, 100 mg/kg/day, 3 days.
The mark [11] stands for this setting: Experiment 3, 35 mg/kg/day, 14 days.

In the case of `COC1=C(OC)C(=O)C(CCCCCCCCCCCCCCCCCCO)=C(C)C1=O` [I (n = 18), 6-(18-hydroxyoctadecyl)-2,3-dimethoxy-5-methyl-1,4-benzoquinone], the Oxygen consumption rate in series [1] is on record as 44.5 ± 3.2 Oxygen (n atom)/minute/mg prot.
Regarding `COC1=C(OC)C(=O)C(CCCCCCCCCCO)=C(C)C1=O` [I (n = 10), 2,3-dimethoxy-5-methyl-6-(10-hydroxydecyl)-1,4-benzoquinone], the “Heart lactic acid on wet weight basis” value in series [2] was 1.9 ± 0.12 µmol/g; in [7], 1.65 ± 0.1 µmol/g. Moreover, the figures for the QRS width in series [2] and in [7] were 2.9 ± 0.2 ms and 4.6 ± 0.4 ms, respectively. Besides, the Oxygen consumption rate in series [1] is listed as 45.0 ± 3.7 Oxygen (n atom)/minute/mg prot. In addition, in series [3] (10 SHRSP fed without sodium chloride loading), the “Spontaneous manifestation of cerebral apoplexy (in words)” value was “can prevent manifestation of cerebral apoplexy”. The “Incidence of cerebral apoplexy (number of apoplectic cases/number of animals used)” value in series [3] (Experiment 1, sodium chloride loading +, 35 mg/kg/day in diet, 40 days, 8-week-old male SHRSP) is listed as 7/12; in series [3] (Experiment 2, no sodium chloride loading, 35 mg/kg/day, 45 days, 14-week-old male SHRSP), 5/10. The “Cerebral apoplexy compared with the control group (in words)” value in [3] (SHRSP fed with high sodium chloride level, compound in admixture with the diet, 12 male SHRSP) is “significantly (P<0.05 by Wilcoxon's two sample test) inhibited”. The “Time to convulsion fit” value in series [4] (Experiment 1, 15 mg/kg/day oral, 21 days) turned out to be 119 ± 13 min; in series [4] (setting [10]), 117 ± 15 min; in [4] (setting [11]), 93 ± 14 min. The Time to death in series [4] (setting [10]) worked out at 235 ± 27 min; in series [4] (setting [11]) it was 242 ± 29 min. Also, the Body weight came to 224 ± 4 g in series [5] (day 0), 269 ± 8 g in series [5] (day 14) and 274 ± 13 g in series [5] (day 21). Further, the Urine protein in series [5] (day 0) is 47 ± 1 mg/day/250 g body weight; in series [5] (day 14), 225 ± 38 mg/day/250 g body weight; in [5] (day 21) it was 367 ± 68 mg/day/250 g body weight. For the same compound, in series [6], the “Abnormalities (general condition, urinalysis, blood examination, histopathology)” value is given as “could not reveal any abnormalities ascribable to the administration”. For the same compound, the Blood pressure in series [8] (day 0) is listed as 175 ± 3 mmHg; in series [8] (day 7), 188 ± 4 mmHg; in series [8] (day 14), 199 ± 3 mmHg; in series [8] (day 21), 208 ± 4 mmHg. The Body weight loss in series [9] is 8 ± 3%. Moreover, the “Severity of symptoms (total score of group; 0 to 5 per individual)” value in series [9] turned out to be 20 ± 3.
